Data published in doi:10.1101/2025.09.12.675753, “In search of nonlipogenic ABCA1 inducers (NLAI): precision coregulator TR-FRET identifies diverse signatures for LXR ligands” (bioRxiv, 2025).
“Also recorded” adds a separate entry of the source. Like-named read-outs stand apart in the source and are kept apart here.

Columns and labels:
PXR = PXR (Homo sapiens, UniProt O75469); assay: Lanthascreen CRT, SRC1-4 recruitment to PXR; format: biochemical; settings: SRC1-4 coactivator
C57Bl/6 mice = system: C57Bl/6 mice; set-up: method as in PMID 15145986; settings: cited from earlier work
hamsters = system: hamsters; set-up: method as in PMID 16024916; settings: cited from earlier work
cynomolgus monkeys = system: cynomolgus monkeys; set-up: method as in PMID 16024916; settings: cited from earlier work
LXRα [1] = target: T1, LXRα (Homo sapiens, UniProt Q13133); assay: Multiplex precision CRT (pCRT), SRC1 and NCoR2, LXRα; format: biochemical; set-up: NR-LBD with short coregulator peptides as used in the present work; purchased Thermo Fisher Scientific PV4657; settings: isoform not given
T1 sequence (Q13133 209-447 limits assumed): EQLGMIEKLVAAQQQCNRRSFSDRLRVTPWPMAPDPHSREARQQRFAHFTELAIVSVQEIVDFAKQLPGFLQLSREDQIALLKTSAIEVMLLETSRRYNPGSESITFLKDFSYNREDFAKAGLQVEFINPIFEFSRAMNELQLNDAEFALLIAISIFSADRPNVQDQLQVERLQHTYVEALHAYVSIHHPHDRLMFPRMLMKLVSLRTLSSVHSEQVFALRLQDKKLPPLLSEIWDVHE

LXRβ [2] = target: T2, LXRβ (Homo sapiens, UniProt P55055); assay: Multiplex precision CRT (pCRT), SRC1 and NCoR2, LXRβ; format: biochemical; set-up: NR-LBD with short coregulator peptides as used in the present work; purchased Thermo Fisher Scientific PV4660; settings: isoform not given
T2 sequence (P55055 222-460 limits assumed): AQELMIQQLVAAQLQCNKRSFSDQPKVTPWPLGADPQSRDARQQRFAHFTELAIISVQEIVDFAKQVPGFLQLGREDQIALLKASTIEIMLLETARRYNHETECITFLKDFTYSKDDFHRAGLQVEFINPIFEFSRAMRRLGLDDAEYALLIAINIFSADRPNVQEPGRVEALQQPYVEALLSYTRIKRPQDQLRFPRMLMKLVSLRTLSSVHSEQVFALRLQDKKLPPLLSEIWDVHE

LXRα [3] = target: T1, LXRα; set-up: NR-LBD with short coregulator peptides as used in the present work; purchased Thermo Fisher Scientific PV4657; method as in PMID 16354658; settings: CRT; cited from earlier work
LXRβ [4] = target: T2, LXRβ; settings: for LXR isoform selectivity, SRC-1 recruitment: LXRβ versus LXRα
HepG2 cells [5] = assay: Cytotoxicity seen in HepG2 cell treatment; settings: higher concentrations
LXRα [6] = target: T1, LXRα; settings: ligand alone, normalized to T0 (100%)
HepG2 cells [7] = system: HepG2 cells; set-up: method as in PMID 28087808; settings: cited from earlier work
HepG2 cells [8] = system: HepG2 cells
[9] = po; cited from earlier work
LXRα [10] = target: T1, LXRα; assay: Corepressor (NCOR2, SMRT2) binding CRT, LXRα; settings: absence of coactivator
LXRβ [11] = target: T2, LXRβ; assay: Corepressor (NCOR2, SMRT2) binding CRT, LXRβ; settings: absence of coactivator

Chain of PXR (O75469 146-433 limits assumed): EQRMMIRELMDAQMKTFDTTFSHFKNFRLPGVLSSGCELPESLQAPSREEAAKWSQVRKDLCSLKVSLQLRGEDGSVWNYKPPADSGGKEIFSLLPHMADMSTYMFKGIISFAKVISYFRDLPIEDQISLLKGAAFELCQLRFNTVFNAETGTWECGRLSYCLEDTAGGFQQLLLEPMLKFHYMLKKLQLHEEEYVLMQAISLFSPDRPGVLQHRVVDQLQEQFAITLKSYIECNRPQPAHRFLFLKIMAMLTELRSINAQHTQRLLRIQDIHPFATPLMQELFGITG

In the case of `O=C(O)Cc1cccc(OCCCN(Cc2cccc(C(F)(F)F)c2Cl)CC(c2ccccc2)c2ccccc2)c1` [GW3965], the “PXR agonism/binding in CRT” value (PXR) is given as “no binding to PXR”, the “Liver weight and TGs” value (C57Bl/6 mice; 3 days treatment, GW3965 even at 100mg/kg/day) is given as “no effect on these liver markers” and the “SREBP1c and FAS expression in the liver” value (C57Bl/6 mice; 3 days treatment) is given as “minimal increases in SREBP1c and FAS expression in the liver”. For the same compound, the “ABCA1 expression increase, peripheral macrophages” value (C57Bl/6 mice; peripheral macrophages) was 7 fold, the “ABCA1 expression increase, small intestine” value (C57Bl/6 mice; small intestine) was 8 fold and the “Plasma TG, LDL-C and VLDL-C” value (hamsters) was “dose-dependent increase”. For the same compound, the “TG and LDL” value (cynomolgus monkeys) was “no effect on TG”, the “Left-shift in the NCOR2 displacement curve, pCRT versus CRT” value (LXRα [1]) was 100 fold and the “Left-shift in the NCOR2 displacement curve, pCRT versus CRT” value (LXRβ [2]) was 100 fold. The “Concentration for weak recruitment of NCOR1 to LXRα” value (LXRα [3]) was over 1 µM.
With `CC(C)C(O)CC[C@@H](C)[C@H]1CC[C@H]2[C@@H]3CC=C4C[C@@H](O)CC[C@]4(C)[C@H]3CC[C@]12C` (stereo partly drawn) [24HC, 24-hydroxycholesterol] the “LXR isoform selectivity, SRC-1 recruitment” value (LXRβ [4]) was “nonselective”, the “SRC-1 recruitment to LXRβ, efficacy/potency relative to T0” value (LXRβ [4]; ligand alone, normalized to T0 (100%)) was “partial agonist” and the Cytotoxicity (HepG2 cells [5]) was “cytotoxic at higher concentrations”. For the same compound, the “SRC-1 recruitment to LXRα, efficacy relative to T0” value (LXRα [6]) was “partial agonist”.
For `CN(CC(=O)Nc1ccc(F)c(F)c1F)C(=O)c1ccc2c(c1)OCCO2` [IMB-808], the “Lipogenicity in HepG2 cells” value (HepG2 cells [7]) is listed as “nonlipogenic in HepG2 cells”.
For `CC(CCC(=O)N(C)C)C1CCC2C3CC=C4CC(O)CCC4(C)C3CCC12C` (stereo not drawn) [DMHCA, N,N-dimethyl-3β-hydroxy-cholenamide], the “LXR isoform selectivity, SRC-1 recruitment” value (LXRβ [4]) is listed as “nonselective”, the Cytotoxicity (HepG2 cells [8]) is listed as “cytotoxic at higher concentrations” and the “Metabolic lability and oral bioavailability” value [9] is listed as “metabolically labile with poor oral bioavailability”. The “NCOR2 binding to LXRα, ligand effect” value (LXRα [10]) was “little or no effect”, the “NCOR2 binding to LXRβ, ligand effect” value (LXRβ [11]) was “little or no effect; also recorded: does not displace NCOR2 from LXRβ in the absence of SRC1” and the “SRC-1 recruitment to LXRα, efficacy relative to T0” value (LXRα [6]) was “partial agonist activity at LXRα”.
